According to patent publication EP0624593A2, “Bile acid derivates, a method for their production and their use as medicines” (HOECHST AKTIENGESELLSCHAFT, priority 1993, dated 1994):

Target: T1, Na⁺-abhängiges Gallensäuretransportsystem (Bürstensaummembranvesikel des Ileums) (Oryctolagus cuniculus, UniProt Q28727)
T1 construct: Präparation von Bürstensaummembranvesikeln aus dem Ileum von Kaninchen; from tissue; host or cells: Brush border membrane vesicles from the terminal ileum of male New Zealand rabbits (Mg2+ precipitation method)
T1 sequence (Q28727 1-347): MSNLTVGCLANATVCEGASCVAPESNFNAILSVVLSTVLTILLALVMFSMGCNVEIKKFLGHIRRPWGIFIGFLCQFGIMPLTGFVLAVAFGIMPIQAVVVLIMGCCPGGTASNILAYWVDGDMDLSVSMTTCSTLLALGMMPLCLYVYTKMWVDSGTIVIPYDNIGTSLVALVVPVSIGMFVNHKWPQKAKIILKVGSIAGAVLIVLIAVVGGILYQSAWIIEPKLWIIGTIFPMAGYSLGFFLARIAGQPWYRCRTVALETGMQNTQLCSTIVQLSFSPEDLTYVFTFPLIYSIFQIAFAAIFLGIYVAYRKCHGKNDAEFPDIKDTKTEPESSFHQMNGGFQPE
Assay: Inhibition of [³H]-taurocholate uptake into brush border membrane vesicles of rabbit ileum (membrane filtration technique)
Type: biochemical, Kaninchen
Conditions: 50 µM Taurocholat; for IC50Na-TCDC[µmol] / IC50Na-Substanz[µmol]: quotient of IC50Na of reference Taurochenodesoxycholat (TCDC) and IC50Na of test substance, Na⁺-dependent transport part (difference Na-T-P minus K-T-P); for IC50-TCDC[µmol] / IC50-Substanz[µmol]: quotient of IC50 of reference Taurochenodesoxycholat (TCDC) and IC50 of test substance, [³H]-Taurocholat uptake, usually 1 min incubation
Description: Die biologische Prüfung der erfindungsgemäßen Verbindungen erfolgte durch Ermittlung der Hemmung der [³H]-Taurocholataufnahme in Bürstensaummembranvesikel des Ileums von Kaninchen. Der Hemmtest wurde wie folgt durchgeführt:
1. Präparation von Bürstensaummembranvesikeln aus dem Ileum von Kaninchen
Die Präparation von Bürstensaummembranvisikeln aus den Darmzellen des Dünndarm erfolgte mit der sogenannten Mg²⁺-Präzipitationsmethode. Männliche Neuseeland-Kaninchen (2 bis 2,5 kg Körpergewicht) wurden durch intravenöse Injektion von 0,5 ml einer wäßrigen Lösung von 2,5 mg Tetracain HCl, 100 T 61^R und 25 mg Mebezoniumjodid getötet. Der Dünndarm wurde entnommen und mit eiskalter physiologischer Kochsalzlösung gespült. Die terminalen 7/10 des Dünndarms (gemessen in oral rectaler Richtung, d. h. das terminale Ileum, welches das aktive Na⁺-abhängige Gallensäuretransportsystem enthält) wurden zur Präparation der Bürstensaummembranvesikel verwendet. Die Därme wurden in Kunststoffbeuteln unter Stickstoff bei -80°C eingefroren. Zur Präparation der Membranvesikel wurden die eingefrorenen Därme bei 30°C im Wasserbad aufgetaut. Die Mucosa wurde abgeschabt und in 60 ml eiskaltem 12 mM Tris/HCl-Puffer (pH 7,1)/300 mM Mannit, 5 mM EGTA/10 mg/l Phenylmethylsulfonylfluorid/1 mg/l Trypsin Inhibitor v. Sojabohnen (32 U/mg)/0,5 mg/l Trypsin Inhibitor v. Rinderlunge (193 U/mg)15 mg/l Bacitracin suspendiert. Nach dem Verdünnen auf 300 ml mit eiskaltem destilliertem Wasser wurde mit einem Ultraturrax (18-Stab, IKA Werk Staufen, BRD) 3 Minuten bei 75 % max. Leistung unter Eiskühlung homogenisiert. Nach Zugabe von 3 ml 1 M MgCl₂-Lösung (Endkonzentration 10 mM) ließ man exakt 1 Minute bei 0°C stehen. Durch Zugabe von Mg²⁺ aggregieren die Zellmembranen und präzipitieren mit Ausnahme der Bürstensaummembranen. Nach einer 15-minütigen Zentrifugation bei 3000 x g (5000 rpm, SS-34-Rotor) wurde der Niederschlag verworfen und der Überstand, der die Bürstensaummembranen enthält, 30 Minuten bei […] (15000 rpm, SS-34-Rotor) zentrifugiert. Der Überstand wurde verworfen, der Niederschlag in 60 ml 12 mM Tris/HCl-Puffer (pH 7,1)/60 mM Mannit, 5 mM EGTA mit einem Potter Elvejhem Homogenisator (Braun, Melsungen, 900 rpm, 10 Hübe) rehomogenisiert. Nach Zugabe von 0,1 ml 1 M MgCl₂-Lösung und 15-minütiger Inkubationszeit bei 0°C wurde erneut 15 Minuten bei 3000 x g zentrifugiert. Der Überstand wurde anschließend nochmals 30 Minuten bei 46000 x g (15000 rpm, SS-34-Rotor) zentrifugiert. Der Niederschlag wurde in 30 ml 10 mM Tris/Hepes-Puffer (pH 7,4)/300 mM Mannit aufgenommen und durch 20 Hübe in einem Potter Elvejhem Homogenisator bei 1000 rpm homogen resuspendiert. Nach 30 minütiger Zentrifugation bei 48000 x g (20000 rpm, SS-34-Rotor) wurde der Niederschlag in 0,5 bis 2 ml Tris/Hepes-Puffer (pH 7,4)/280 mM Mannit (Endkonzentration 20 mg/ml) aufgenommen und mit Hilfe einer Tuberkulinspritze mit einer 27 Gauge-Nadel resuspendiert. Die Vesikel wurden entweder unmittelbar nach der Präparation für Transportuntersuchungen verwendet oder bei -196°C in 4 mg Portionen in flüssigem Stickstoff aufbewahrt.
2. Hemmung der Na⁺-abhängigen [³H]Taurocholat-Aufnahme in Bürstensaummembranvesikel des Ileums
Die Aufnahme von Substraten in die vorstehend beschriebenen Bürstensaummembranvesikel wurde mittels der sogenannten Membranfiltrationstechnik bestimmt. 10 µl der Vesikelsuspension (100 µg Protein) wurden als Tropfen an die Wand eines Polystyrolinkubationsröhrchens (11 x 70 mm) pipettiert, welches das Inkubationsmedium mit den entsprechenden Liganden enthielt (90 µl). Das Inkubationsmedium enthielt 0,75 µl = 0,75 µCi [³H(G)]-Taurocholat (spezifische Aktivität: 2,1 Ci/mMol) /0,5 µl 10 mM Taurocholat/8,75 µl Natrium-Transport-Puffer (10 mM Tris/Hepes, (pH 7,4)/100 mM Mannit/100 mM NaCl) (Na-T-P) bzw. 8,75 µl Kalium-Transport-Puffer (10 mM Tris/Hepes (pH 7,4)/100 mM Mannit/100 mM KCl) (K-T-P) und 80 µl der betreffenden Inhibitorlösung, je nach Experiment in Na-T-Puffer bzw. K-T-Puffer gelöst. […]

| Structure (SMILES) | IC50Na-TCDC[µmol] / IC50Na-Substanz[µmol] | IC50-TCDC[µmol] / IC50-Substanz[µmol] |
| --- | --- | --- |
| C[C@H](CCC(=O)N[C@H]1C[C@@H]2C[C@H](O)CC[C@]2(C)[C@H]2C[C@H](O)[C@]3(C)[C@@H]([C@H](C)CCC(=O)O)CC[C@H]3[C@H]12)[C@H]1CC[C@H]2[C@@H]3CC[C@@H]4C[C@H](O)CC[C@]4(C)[C@H]3CC[C@]12C [Beispiel 29] | 0,17 | 0,23 |
| C[C@H](CCC(=O)NCCO[C@@H]1C[C@@H]2C[C@H](O)CC[C@]2(C)[C@H]2C[C@H](O)[C@]3(C)[C@@H]([C@H](C)CCC(=O)O)CC[C@H]3[C@H]12)[C@H]1CC[C@H]2[C@@H]3[C@H](O)C[C@@H]4C[C@H](O)CC[C@]4(C)[C@H]3C[C@H](O)[C@]12C [Beispiel 30] | 0,85 | 0,93 |
| C[C@H](CCC(=O)NCCO[C@@H]1C[C@@H]2C[C@H](O)CC[C@]2(C)[C@H]2C[C@H](O)[C@]3(C)[C@@H]([C@H](C)CCC(=O)NCCS(=O)(=O)O)CC[C@H]3[C@H]12)[C@H]1CC[C@H]2[C@@H]3[C@H](O)C[C@@H]4C[C@H](O)CC[C@]4(C)[C@H]3C[C@H](O)[C@]12C [Beispiel 43] | 0,96 | 1,18 |
| C[C@H](CCC(=O)N[C@H]1C[C@@H]2C[C@H](O)CC[C@]2(C)[C@H]2C[C@H](O)[C@]3(C)[C@@H]([C@H](C)CCC(=O)NCCS(=O)(=O)O)CC[C@H]3[C@H]12)[C@H]1CC[C@H]2[C@@H]3[C@H](O)C[C@@H]4C[C@H](O)CC[C@]4(C)[C@H]3C[C@H](O)[C@]12C [Beispiel 39] | 1,05 | 0,92 |
| C[C@H](CCC(=O)NCCCNC(=O)CCC(=O)NCCO[C@@H]1C[C@@H]2C[C@H](O)CC[C@]2(C)[C@H]2C[C@H](O)[C@]3(C)[C@@H]([C@H](C)CCC(=O)O)CC[C@H]3[C@H]12)[C@H]1CC[C@H]2[C@@H]3[C@H](O)C[C@@H]4C[C@H](O)CC[C@]4(C)[C@H]3C[C@H](O)[C@]12C [Beispiel 32] | 0,80 | 1,00 |
| C[C@H](CCC(=O)N[C@H]1C[C@@H]2C[C@H](O)CC[C@]2(C)[C@H]2C[C@H](O)[C@]3(C)[C@@H]([C@H](C)CCC(=O)O)CC[C@H]3[C@H]12)[C@H]1CC[C@H]2[C@@H]3[C@@H](O)C[C@@H]4C[C@H](O)CC[C@]4(C)[C@H]3CC[C@]12C [Beispiel 28] | 0,43 | 0,54 |
| C[C@H](CCC(=O)N[C@H]1C[C@@H]2C[C@H](O)CC[C@]2(C)[C@H]2C[C@H](O)[C@]3(C)[C@@H]([C@H](C)CCC(=O)O)CC[C@H]3[C@H]12)[C@H]1CC[C@H]2[C@@H]3[C@H](O)C[C@@H]4C[C@H](O)CC[C@]4(C)[C@H]3CC[C@]12C [Beispiel 27] | 0,44 | 0,64 |
| C[C@H](CCC(=O)N[C@H]1C[C@@H]2C[C@H](O)CC[C@]2(C)[C@H]2C[C@H](O)[C@]3(C)[C@@H]([C@H](C)CCC(=O)NCCS(=O)(=O)O)CC[C@H]3[C@H]12)[C@H]1CC[C@H]2[C@@H]3[C@H](O)C[C@@H]4C[C@H](O)CC[C@]4(C)[C@H]3CC[C@]12C [Beispiel 40] | 0,52 | 0,54 |
| C[C@H](CCC(=O)N[C@H]1C[C@@H]2C[C@H](O)CC[C@]2(C)[C@H]2C[C@H](O)[C@]3(C)[C@@H]([C@H](C)CCC(=O)O)CC[C@H]3[C@H]12)[C@H]1CC[C@H]2[C@@H]3[C@H](O)C[C@@H]4C[C@H](O)CC[C@]4(C)[C@H]3C[C@H](O)[C@]12C [Beispiel 26] | 0,29 | – |
| COC(=O)CC[C@@H](C)[C@H]1CC[C@H]2[C@@H]3[C@H](OCCNC(=O)CCC(=O)NCCCNC(=O)CC[C@@H](C)[C@H]4CC[C@H]5[C@@H]6[C@H](O)C[C@@H]7C[C@H](OC(c8ccccc8)c8ccccc8)CC[C@]7(C)[C@H]6C[C@H](O)[C@]45C)C[C@@H]4C[C@H](OC(C)=O)CC[C@]4(C)[C@H]3C[C@H](O)[C@]12C [Beispiel 20] | 0,12 | – |
